# Measured values taken from patent publication US10166216B2 (Rigel Pharmaceuticals, Inc., priority 2006, dated 2019).
# Molecular target: Axl (Homo sapiens (Human), UniProt P30530)
# Assay: Phospho-Akt in-cell Western assay (Axl-antibody cross-linking stimulation)
# Assay type: cell-based
# Settings: inhibition of Axl activity, Hela cells, phospho-Akt readout; Table 1, formula (Ia1)
# Description: The working solution: dilute the stock 1:20 with PBS immediately before use. • 10% SDS: working solution: 5% SDS (sodium dodecylsulfate), diluted in PBS Methods: Day 1:
# A 96 well TC (tissue culture treated) plate was coated with 10 μg/mL poly-L-Lysine at 37° C. for 30 min, washed twice with PBS, and air-dried for 5 minutes before cells were added. Hela cells were seeded at 10,000 cells/well and the cells were starved in 100 μL starvation medium containing Axl/Fc for 24 hrs.
# The cells were pre-treated with test compounds by adding 100 μL of 2× test compound to the starvation medium on the cells. The cells were incubated at 37° C. for 1 hr before stimulation.
# The resulting mix was warmed to 37° C. 50 μL of 5× Axl 1st/2nd of antibody cluster was added to the cells and the cells were incubated at 37° C. for 5 min.
# After 5 minutes stimulation, the plate was flicked to remove medium and the plate was tapped onto paper towels. Formaldehyde (4.0% in PBS, 100 μL) was added to fix the cells and the cells were incubated at ambient temperature for 20 min without shaking.
# The cells were washed with a plate washer buffer to remove the formaldehyde solution. The plate was flicked to removed excess wash buffer and tapped onto paper towels. Quenching buffer (100 μL) was added to each well and the cells were incubated at ambient temperature for 20 minutes without shaking.
# The cells were washed with a plate washer buffer to remove the quenching buffer. Blocking buffer (100 μL) was added and the cells were incubated at ambient temperature for at least an hour with gentle shaking.
# The cells were washed with a plate washer buffer and diluted primary antibody (50 μL) was added to each well (blocking buffer was added to the negative control wells instead). The plates were incubated overnight at 4° C. with gentle shaking.
# The wash buffer was removed, diluted secondary antibody (100 μL) was added, and the cells were incubated at ambient temperature for 1 hour with gentle shaking. During the incubation, the chemiluminescent reagent was brought to ambient temperature.
# The secondary antibody was removed by washing the cells 1× with wash buffer, 1× with PBS by plate washer. The PBS was removed from the plate and the chemiluminescent reagent (80 μL: 40 μL A and 40 μL B) was added to each well at ambient temperature.
# The resulting chemiluminescence was read with a Luminomitor within 10 minutes to minimize changes in signal intensity. […] The plate was tapped onto paper towels to remove excess liquid from wells and air-dried at ambient temperature for 5 minutes.
# Crystal Violet working solution (60 μL) was added to each well and the cells were incubated at ambient temperature for 30 min. The crystal violet solution was removed, and the wells were rinsed with PBS, then washed 3× with PBS (200 μL) for 5 minutes each.
# 5% SDS solution (70 μL) was added to each well and the cells were incubated on a shaker for 30 min at ambient temperature.
# This relative cell number was then used to normalize each luminescence reading. […]
# Axl, sequence (P30530 26-894): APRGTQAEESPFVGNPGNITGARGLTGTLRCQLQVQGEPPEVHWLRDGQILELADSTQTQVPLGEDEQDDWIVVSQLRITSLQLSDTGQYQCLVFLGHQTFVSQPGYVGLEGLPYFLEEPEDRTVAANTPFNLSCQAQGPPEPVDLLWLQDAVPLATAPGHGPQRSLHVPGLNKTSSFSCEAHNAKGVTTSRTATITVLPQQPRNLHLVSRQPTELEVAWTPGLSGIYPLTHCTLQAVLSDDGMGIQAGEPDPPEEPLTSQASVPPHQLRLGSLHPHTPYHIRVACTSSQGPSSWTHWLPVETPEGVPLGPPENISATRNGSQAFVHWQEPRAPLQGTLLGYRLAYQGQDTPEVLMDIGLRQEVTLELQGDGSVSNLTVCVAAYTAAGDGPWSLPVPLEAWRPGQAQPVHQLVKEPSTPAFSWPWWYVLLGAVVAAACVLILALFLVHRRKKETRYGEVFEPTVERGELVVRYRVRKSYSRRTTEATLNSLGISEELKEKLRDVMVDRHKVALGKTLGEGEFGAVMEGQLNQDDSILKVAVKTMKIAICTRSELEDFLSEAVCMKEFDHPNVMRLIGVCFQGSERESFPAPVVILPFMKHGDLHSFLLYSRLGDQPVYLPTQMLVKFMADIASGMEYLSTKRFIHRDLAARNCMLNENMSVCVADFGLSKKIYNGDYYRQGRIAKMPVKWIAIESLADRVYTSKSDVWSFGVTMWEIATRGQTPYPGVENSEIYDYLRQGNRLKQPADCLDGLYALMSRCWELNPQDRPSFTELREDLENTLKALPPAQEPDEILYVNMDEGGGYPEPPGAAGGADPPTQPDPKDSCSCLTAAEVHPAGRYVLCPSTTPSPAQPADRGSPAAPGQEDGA
row,IC50,Compound
1,< 1000 nM,"Nc1nc(Nc2ccc(OCCN3CCCC3)cc2)nn1-c1cc(C(F)(F)F)ccn1 [Compound 26, N^3-(4-(2-(pyrrolidin-1-yl)ethoxy)phenyl)-1-(4-(trifluoromethyl)pyridin-2-yl)-1H-1,2,4-triazole-3,5-diamine]"
2,< 1000 nM,"Nc1nc(Nc2ccc(OCCN3CCCC3)cc2)nn1-c1nc(Cl)nc2ccsc12 [Compound 177, 1-(2-chlorothieno[3,2-d]pyrimidin-4-yl)-N^3-(4-(2-pyrrolidin-1-ylethoxy)phenyl)-1H-1,2,4-triazole-3,5-diamine]"
3,< 1000 nM,"Nc1nc(Nc2ccc(OCCN3CCCC3)c(F)c2)nn1-c1ncnc2sc3c(c12)CCCC3 [Compound 68, N^3-(3-fluoro-4-(2-(pyrrolidin-1-yl)ethoxy)phenyl)-1-(5,6,7,8-tetrahydrobenzo[4,5]thieno[2,3-d]pyrimidin-4-yl)-1H-1,2,4-triazole-3,5-diamine]"
4,< 1000 nM,"Nc1nc(Nc2ccc(OCCN3CCCC3)cc2)nn1-c1ncnc2cc(-c3ccccc3)sc12 [Compound 52, 1-(6-phenylthieno[3,2-d]pyrimidin-4-yl)-N^3-(4-(2-(pyrrolidin-1-yl)ethoxy)phenyl)-1H-1,2,4-triaozle-3,5-diamine]"
5,< 1000 nM,"Nc1nc(Nc2ccc(OCCN3CCCCC3)cc2)nn1-c1cccc(Cl)n1 [Compound 19, 1-(6-chloropyridin-2-yl)-N^3-(4-(2-(piperidin-1-yl)ethoxy)phenyl)-1H-1,2,4-triazole-3,5-diamine]"
6,> 20000 nM,"Nc1nc(Nc2ccc(OCCN3CCCC3)cc2)nn1-c1ncccc1Cl [Compound 18, 1-(3-chloropyridin-2-yl)-N^3-(4-(2-(pyrrolidin-1-yl)ethoxy)phenyl)-1H-1,2,4-triazole-3,5-diamine]"
7,1000 to 10000 nM,"Nc1nc(Nc2ccc(OCCN3CCCC3)cc2)nn1-c1ccc(Cl)cn1 [Compound 17, 1-(5-chloropyridin-2-yl)-N^3-(4-(2-(pyrrolidin-1-yl)ethoxy)phenyl)-1H-1,2,4-triazole-3,5-diamine]"
8,10000 to 20000 nM,"CN(C)c1cccc(-n2nc(Nc3ccc(OCCN4CCCCC4)cc3)nc2N)n1 [Compound 36, 1-(6-(dimethylamino)pyridin-2-yl)-N^3-(4-(2-(piperidin-1-yl)ethoxy)phenyl)-1H-1,2,4-triazole-3,5-diamine]"
9,1000 to 10000 nM,"Nc1nc(Nc2ccc(OCCN3CCCC3)cc2)nn1-c1ncccc1C(F)(F)F [Compound 29, N^3-(4-(2-(pyrrolidin-1-yl)ethoxy)phenyl)-1-(3-(trifluoromethyl)pyridin-2-yl)-1H-1,2,4-triazole-3,5-diamine]"
10,1000 to 10000 nM,"COc1cccc(-n2nc(Nc3ccc(OCCN4CCCC4)cc3)nc2N)n1 [Compound 30, 1-(6-methoxypyridin-2-yl)-N^3-(4-(2-(pyrrolidin-1-yl)ethoxy)phenyl)-1H-1,2,4-triazole-3,5-diamine]"
11,< 1000 nM,"Nc1nc(Nc2ccc(OCCN3CCCC3)cc2)nn1-c1ncnc2sc3c(c12)CCCC3 [Compound 61, 1-(5,6,7,8-tetrahydrobenzo[4.,5]thieno[2,3-d]pyrimidin-4-yl)-N^3-(4-(2-(pyrrolidin-1-yl)ethoxy)phenyl)-1H-1,2,4-triazole-3,5-diamine]"
12,> 20000 nM,"Nc1nc(Nc2ccc(OCCN3CCCCC3)cc2)nn1-c1ccnc(N2CCOCC2)c1 [Compound 15, 1-(2-morpholinopyridin-4-yl)-N^3-(4-(2-(piperidin-1-yl)ethoxy)phenyl)-1H-1,2,4-triazole-3,5-diamine]"

# Same assay, conditions: inhibition of Axl activity, Hela cells, phospho-Akt readout; Table 5, formula (Ia3)
row,IC50,Compound
1,< 1000 nM,"COc1cc2ncnc(-n3nc(Nc4ccc(CN5CCN(C)CC5)cc4)nc3N)c2cc1OC [Compound 173, 1-(6,7-dimethoxyquinazolin-4-yl)-N^3-(4-((4-methylpiperazin-1-yl)methyl)phenyl)-1H-1,2,4-triazole-3,5-diamine]"
2,> 20000 nM,"Nc1nc(Nc2ccc(C(=O)O)cc2)nn1-c1ccnc(N2CCC[C@H]2CN2CCCC2)c1 [Compound 146, (S)-4-(5-amino-1-(2-(2-(pyrrolidin-1-ylmethyl)pyrrolidin-1-yl)pyridin-4-yl)-1H-1,2,4-triazol-3-ylamino) benzoic acid]"

# Same assay, conditions: inhibition of Axl activity, phospho-Akt in-cell Western assay
row,IC50,Compound
1,> 20000 nM,"COc1cc2ncnc(-n3nc(Nc4ccc(N5CCN(C6CC7CCCC76)CC5)cc4)nc3N)c2cc1OC (centres unmarked) [Compound 124, N^3-(4-(4-(bicyclo[3.2.0]heptan-6-yl)piperazin-1-yl)phenyl)-1-(6,7-dimethoxyquinazolin-4-yl)-1H-1,2,4-triazole-3,5-diamine]"
2,1000 to 10000 nM,"Cc1cc(N2CCN(C3CC4CCC3C4)CC2)ccc1Nc1nc(N)n(-c2nc(Cl)nc3c(C)csc23)n1 (centres unmarked) [Compound 200, 1-(7-methyl-2-chlorothieno[3,2-d]pyrimidin-4-yl)-N^3-(2-methyl-4-(4-(bicyclo[2.2.1]heptan-2-yl)-piperazin-1-yl)phenyl)-1H-1,2,4-triazole-3,5-diamine]"
3,1000 to 10000 nM,"Cc1csc2c(-n3nc(Nc4ccc(N5CCN([C@H]6CC7CCC6C7)CC5)cc4)nc3N)nc(/C=C/CN3CCOCC3)nc12 (stereo partly drawn) [Compound 241, 1-((E)-7-methyl-2-(3-(morpholin-4-yl)prop-1-enyl)thieno[3,2-d]pyrimidin-4-yl)-N^3-(4-(4-((2S)-bicyclo[2.2.1]heptan-2-yl)piperazin-1-yl)phenyl)-1H-1,2,4-triazole-3,5-diamine]"
4,1000 to 10000 nM,"Nc1nc(Nc2ccc(N3CCN(C4CC5CCC4C5)CC3)cc2)nn1-c1ncnc2sc3c(c12)CCC3 (centres unmarked) [Compound 132, N^3-(4-(4-(bicyclo[2.2.1]heptan-2-yl)piperazin-1-yl)phenyl)-1-(6,7-dihydro-5H-cyclopenta[4,5]thieno[2,3-d]pyrimidin-4-yl)-1H-1,2,4-triazole-3,5-diamine]"
5,< 1000 nM,"Cc1cc(Nc2nc(N)n(-c3nnc(C)c4ccsc34)n2)ccc1N1CCN([C@H]2C[C@@H]3CC[C@H]2C3)CC1 [Compound 232, 1-(4-methylthieno[3,2-d]pyridazin-7-yl)-N^3-(3-methyl-4-(4-((1S,2S,4R)-bicyclo[2.2.1]heptan-2-yl)piperazin-1-yl)phenyl)-1H-1,2,4-triazole-3,5-diamine]"
6,< 1000 nM,"Nc1nc(Nc2ccc(N3CCN([C@H]4C[C@@H]5CC[C@H]4C5)CC3)c(Cl)c2)nn1-c1ncnc2sccc12 [Compound 244, 1-thieno[2,3-d]pyrimidin-4-yl-N^3-(3-chloro-4-(4-((1S,2S,4R)-bicyclo[2.2.1]heptan-2-yl)piperazin-1-yl)phenyl)-1H-1,2,4-triazole-3,5-diamine]"
7,1000 to 10000 nM,"CN1CCN(c2ccc(Nc3nc(N)n(-c4ncnc5cc(O)c(O)cc45)n3)cc2F)CC1 [Compound 116, 4-(5-amino-3-(3-fluoro-4-(4-methylpiperazin-1-yl)phenylamino)-1H-1,2,4-triazol-1-yl)quinaoline-6,7-diol]"
8,> 20000 nM,"Nc1nc(Nc2ccc(N3CCN(C4CC5CCC4C5)CC3)cc2)nn1-c1ncnc2scc(-c3cccs3)c12 (centres unmarked) [Compound 185, 1-(5-(thiophen-2-yl)thieno[2,3-d]pyrimidin-4-yl)-N^3-(4-(4-(bicyclo[2.2.1]heptan-2-yl)-piperazin-1-yl)phenyl)-1H-1,2,4-triazole-3,5-diamine]"
9,< 1000 nM,"Nc1nc(Nc2ccc(N3CCN([C@H]4C[C@@H]5CC[C@H]4C5)CC3)c(Cl)c2)nn1-c1ncnc2ccsc12 [Compound 243, 1-thieno[3,2-d]pyrimidin-4-yl-N^3-(3-chloro-4-(4-((1S,2S,4R)-bicyclo[2.2.1]heptan-2-yl)piperazin-1-yl)phenyl)-1H-1,2,4-triazole-3,5-diamine]"
10,< 1000 nM,"Cc1cc(Nc2nc(N)n(-c3ncnc4c(C)csc34)n2)ccc1N1CCN(C2CC3CCC2C3)CC1 (centres unmarked) [Compound 199, 1-(7-methylthieno[3,2-d]pyrimidin-4-yl)-N^3-(3-methyl-4-(4-(bicyclo[2.2.1]heptan-2-yl)-piperazin-1-yl)phenyl)-1H-1,2,4-triazole-3,5-diamine]"
11,< 1000 nM,"Nc1nc(Nc2ccc(N3CCN(C4CCCCC4)CC3)c(F)c2)nn1-c1nccc2ccccc12 [Compound 87, N^3-(4-(4-cyclohexylpiperazin-1-yl)-3-fluroophenyl)-1-(isoquinolin-1-yl)-1H-1,2,4-triazole-3,5-diamine]"
12,< 1000 nM,"Cc1csc2c(-n3nc(Nc4ccc(N5CCN([C@H]6C[C@@H]7CC[C@H]6C7)CC5)cc4)nc3N)ncnc12 [Compound 188, 1-(7-methylthieno[3,2-d]pyrimidin-4-yl)-N^3-(4-(4-((1S,2S,4R)-bicyclo[2.2.1]heptan-2-yl)-piperazin-1-yl)phenyl)-1H-1,2,4-triazole-3,5-diamine]"
